Assay results: publication PMC6001824, “Expressional and functional interactions of two Apis cerana cerana olfactory receptors” (PeerJ, 2018)
Where two headings read alike, the source gives them in different places.

Assays:
AcerOr1 = AcerOr1 (Apis cerana cerana, UniProt G8HAQ8); assay type: cell-based; details: for HillSlope: Sf9 cells expressing AcerOr1, 4-parameter logistic fit; for EC50: Sf9 cells expressing AcerOr1, Ca2+ imaging; for Emax: Sf9 cells expressing AcerOr1, concentration-response, 4-parameter logistic fit; for response of AcerOr1-expressing cells (increase in intracellular Ca2+): odorant at 10^−6 M
Description: (§1) Spodoptera frugiperda Sf9 cells were purchased from the Chinese Academy of Sciences Cell Bank (Beyotime, Shanghai, China) were maintained as an adherent culture in Sf-900 III serum-free medium (SFM; Gibco, Invitrogen, Carlsbad, CA, USA) supplemented with 10% fetal bovine serum (Sijiqing, Hangzhou, China) and 100 μg mL^−1 penicillin-streptomycin at a constant temperature of 28 °C in a humidified incubator (Thermo Scientific, Cornelius, OR, USA) in the absence of CO2 in T-25 tissue culture flasks (Corning Inc., Corning, NY, USA). Sf9 cells were grown to approximately 80–90% confluence as observed under a light microscope. Cells were dislodged from the flask by washing with the media contained in the flask. In total, 1 × 10^6 Sf9 cells were suspended in 2 mL of Sf-900 III SFM in each well of a Nunclone six-well tissue culture plate (Corning Inc., Corning, NY, USA). Confluent cells (80–90%) were transiently transfected with 2.0 μg pIB-AcerOr1/pIB-AcerOr2 using 8 μL of Cellfectin II reagent (Invitrogen, Carlsbad, CA, USA) in six-well plates according to the manufacturer’s instructions. The medium containing plasmid DNA and Cellfectin II was removed after incubation of the cells with a DNA/Cellfectin II mix for 3–5 h. The cells were washed twice with fresh Sf-900 III SFM and overlaid with 2 mL of fresh SFM. […] After incubation for 48 h, assays were performed.
(§2) To identify candidate ligands for selected ORs, we tested 32 compounds (most of which were volatile compounds from host plants, including aldehydes, alcohols, monoterpenes, benzoates, and sesquiterpenes) at a final concentration of 10^−6 M by Ca^2+ imaging in an in vitro cell expression system. […] After the cells were transfected for 48 h, the medium was removed and the cells were washed three times with Hank’s balanced salt solution (without Ca^2+). The cells were subsequently cultured at 37 °C in the dark for 30 min in the presence of 2 μmol L^−1 Fluo-4-AM (Beyotime, Shanghai, China) and were stimulated by the chemical odorants. Each test chemical ligand was applied to Fluo-4-loaded Sf9 cells expressing AcerOr1 at a final concentration of 10^−6 M, and the increase in fluorescence caused by the substrate was measured and expressed as a fraction of the fluorescence elicited by the calcium ionophore ionomycin. The Ca^2+-free solution used was Dulbecco’s phosphate buffered saline supplemented with 0.4 mM ethylene glycol tetra-acetic acid (EGTA).
(§3) EC50 values were determined using GraphPad Prism 6.0 (GraphPad; San Diego, CA, USA). The formula used for calculating the concentration-response using a 4-parameter logistic model was as follows: Y=Bottom+(Top−Bottom)/1+10^(LogEC50−X)^*HillSlope where Y and X are the response showing a sigmoid shape and the logarithm of the concentration.

AcerOr2 [1] = biological target: T1, AcerOr2 (Apis cerana cerana, UniProt G9J1I3); assay type: cell-based; details: for EC50: Sf9 cells expressing AcerOr2, Ca2+ imaging
Description: as §1, §2, §3

[2] = tested on: endogenous Orco in Sf9 cells; experiment: Ca2+ imaging of control Sf9 cells transfected with pIB/V5 empty vector; assay type: cell-based, Spodoptera frugiperda; details: odorant at 10^−6 M
[3] = tested on: antennae of Apis cerana cerana; experiment: Electroantennography (EAG) of isolated antennae; details: 500 μg μL^−1 of compound in liquid paraffin, relative to blank
Description: The level of OR expression in antenna olfactory neurons can be indirectly measured by recording the EAG responses of the isolated antennae to the corresponding odorant ligand. We compared data previously obtained by Ca^2+ imaging in vitro to determine whether these odorants can cause electrophysiological responses in the antennae with physiological activity. […] The compounds were dissolved and diluted in liquid paraffin to final concentrations of 0.1, 1, 10, 100, and 500 μg μL^−1. Pure liquid paraffin wax was used as a blank, and results were calculated relative to the blank. The antennae were carefully cut at the base and placed into EAG electrode probes (Syntech, Hilversum, The Netherlands) with a drop of Spectra 360 electrode gel (Parker Lab, Inc., Fairfield, NJ, USA). Filter paper strips (5 × 50 mm) were loaded with 20 μL of the different test solutions and inserted into glass Pasteur pipettes and served as sources of stimuli. Humidified airflow was delivered at a constant rate of 700 mL min^−1 by an air stimulus controller CS-55 (Syntech, Kirchzarten, Germany). Odor stimuli were administered three times at 2 mL s^−1 for 0.5 s at 30 s intervals. EAG recordings of antennal responses to each stimulus were documented as voltage waveforms using an IDAC-4 computer-operated amplifier controller (Syntech, Kirchzarten, Germany), and the data were analyzed with the EAGPro software (Syntech, Kirchzarten,Germany). A newly prepared antenna was used for each recording. A dose-response curve was plotted using the EAG recordings (in mV) for each concentration.

AcerOr2 [4] = biological target: T1, AcerOr2; assay type: cell-based; details: odorant at 10^−6 M

Sequence of AcerOr1 (G8HAQ8 entry or part of it): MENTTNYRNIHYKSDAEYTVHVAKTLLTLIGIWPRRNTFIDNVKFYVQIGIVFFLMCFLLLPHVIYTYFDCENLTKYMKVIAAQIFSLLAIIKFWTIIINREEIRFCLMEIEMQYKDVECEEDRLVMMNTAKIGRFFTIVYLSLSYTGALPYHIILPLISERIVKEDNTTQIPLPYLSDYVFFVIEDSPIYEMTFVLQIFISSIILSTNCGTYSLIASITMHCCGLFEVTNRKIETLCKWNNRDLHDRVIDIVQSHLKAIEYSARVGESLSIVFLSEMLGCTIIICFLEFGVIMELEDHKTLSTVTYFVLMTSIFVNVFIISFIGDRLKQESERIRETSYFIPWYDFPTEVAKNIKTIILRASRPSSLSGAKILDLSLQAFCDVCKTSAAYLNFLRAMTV
T1 sequence (G9J1I3 entry or part of it): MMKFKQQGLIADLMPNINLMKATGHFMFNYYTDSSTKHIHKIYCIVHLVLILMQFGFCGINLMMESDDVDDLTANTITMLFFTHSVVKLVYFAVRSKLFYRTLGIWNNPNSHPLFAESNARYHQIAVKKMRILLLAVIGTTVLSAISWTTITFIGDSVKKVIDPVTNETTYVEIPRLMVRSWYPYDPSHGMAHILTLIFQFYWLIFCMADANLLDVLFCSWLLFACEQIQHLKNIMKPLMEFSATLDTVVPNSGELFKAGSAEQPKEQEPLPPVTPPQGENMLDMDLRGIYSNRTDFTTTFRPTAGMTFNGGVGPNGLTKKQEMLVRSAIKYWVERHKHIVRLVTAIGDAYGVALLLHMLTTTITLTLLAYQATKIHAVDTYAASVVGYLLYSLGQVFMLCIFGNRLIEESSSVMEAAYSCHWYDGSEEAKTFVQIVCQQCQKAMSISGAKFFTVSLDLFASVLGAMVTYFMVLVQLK

SMILES	HillSlope (AcerOr1)	EC50 (AcerOr1)	Emax (AcerOr1)	response of AcerOr1-expressing cells (increase in intracellular Ca2+) (AcerOr1)	EC50 (AcerOr2 [1]; read-out: EC50) [µM]	EC50 (AcerOr1; read-out: EC50) [µM]	EC50 (AcerOr2 [1]) [µM]	response of control cells (pIB/V5 empty vector, endogenous Orco only) [2]	EAG response [3] [mV]	HillSlope (AcerOr2 [1]; Sf9 cells expressing AcerOr2, 4-parameter logistic fit)	Emax (AcerOr2 [1]; Sf9 cells expressing AcerOr2, concentration-response, 4-parameter logistic fit)	response of cells expressing AcerOr2 alone (increase in intracellular Ca2+) (AcerOr2 [4])
CCCCCCCCCO [1-Nonanol]	0.80 ± 0.06	10^−7 to 10^−8 M	69.86 ± 0.44	elicited responses	> 10	–	–	–	–	–	–	–
CCCCCCCCCCCC(=O)O [Lauric acid]	0.49 ± 0.06	10^−7 to 10^−8 M	138.79 ± 0.5	elicited responses	> 10	0.0481	–	–	–	–	–	–
CCCCCCOC(C)=O [Hexyl acetate]	0.73 ± 0.05	10^−7 to 10^−8 M	115.94 ± 1.5	elicited responses	> 10	–	–	–	–	–	–	–
CC(C)=CCC/C(C)=C\CO [Nerol]	0.52 ± 0.06	10^−7 to 10^−8 M	184.92 ± 0.55	elicited responses	–	–	> 10	–	–	–	–	–
CCc1ccc(NC(=O)CSc2nnc(-c3cccnc3)n2CC)cc1 [VUAA1, N-(4-ethylphenyl)-2-((4-ethyl-5-(3-pyridinyl)-4H-1,2,4-triazol-3-yl)thio) acetamide]	1.72 ± 1.48	–	4.64 ± 0.10	sensitive	0.0662	–	–	unable to respond	18.71 ± 1.45	0.56 ± 0.08	241.67 ± 0.74	greatest increase in intracellular Ca^2+
C=CC(C)=CCC=C(C)C [Ocimene]	0.50 ± 0.09	10^−7 to 10^−8 M	144.27 ± 0.59	elicited responses	> 10	0.0532	–	–	–	–	–	–
CC/C=C\C/C=C\C/C=C\CCCCCCCC(=O)O [Linolenic acid]	0.87 ± 0.03	10^−7 to 10^−8 M	85.74 ± 0.83	elicited responses	–	–	> 10	–	10 ± 0.54	–	–	–
CCCCCCCCO [1-Octyl alcohol]	0.63 ± 0.04	10^−7 to 10^−8 M	106.77 ± 2.01	elicited responses	> 10	–	–	–	–	–	–	–
C=CCc1ccc(O)c(OC)c1 [Eugenol]	0.74 ± 0.06	10^−7 to 10^−8 M	88.53 ± 0.52	elicited responses	–	–	> 10	–	9.92 ± 0.58	–	–	–
CCCCCCCCCCC(=O)O [Undecanoic acid]	0.73 ± 0.05	10^−7 to 10^−8 M	116.69 ± 1.15	elicited responses	> 10	–	–	–	–	–	–	–
